From patent publication US20210382058A1, “PATIENT SELECTION FOR TREATMENT OF MYC POSITIVE CANCERS WITH INDENOISOQUINOLINES” (Purdue Research Foundation, priority 2020, published 2021)
Where two headings read alike, the source gives them in different places.

Assays:
[1] = tested on: MycG4 (MycPu22 DNA); assay: FRET-melting assay (thermal stabilization of MycG4); format: binding, human; details: FIG. 4
Protocol: To confirm the stabilizing effect of indenoisoquinolines on MycG4, the Tm values of MycG4 were measured in the presence of indenoisoquinoline compounds in 10 mM K^+ using dual-3′-FAM- and 5′-TAMRA-labeled MycPu22 DNA by FRET-melting experiments. MycPu22 DNA forms a single MycG4 structure and was used for NMR structure determination (FIG. 1B, right).^43 Therefore, MycPu22 provides the best molecular system for MycG4 and was used in all the subsequent experiments. […] (FIG. 2B). A clear positive correlation was observed between the indenoisoquinolines' ability to induce MycG4 formation and to increase its thermal stability (FIG. 2C).
FRET-melting experiments. The stock solution containing 100 μM 3′-TAMRA (Ex. 555 nm/Em. 580 nm), 5′-FAM (Ex. 490 nm/Em. 520 nm) dual-labeled MycPu22 DNA sequence was first diluted to 2 μM using 7.5 mM KCl, 2.5 mM phosphate buffer, pH 7.0. […] With gradually increasing temperature, the MycPu22 DNA is unfolded from the G4 form to a single-stranded conformation where the FAM is far apart to the TAMRA, which results in a high FAM fluorescence. Melting curves for the determination of Tm were then obtained by recording FAM fluorescence with increasing temperatures from 25 to 95° C. at a rate of 0.9° C./min using a QuantStudio 6 Flex Real-Time PCR System. The Tm values were determined by the maximum of the first derivative plot of the melting curves. […]

[2] = tested on: NCI-60 cancer cell lines; assay: NCI-60 cancer cell line drug screen (GI50, MGM); format: cell-based, human; details: Homo sapiens; for GI50: read-out: Antiproliferative Activities [GI50 (μM)]; for mean GI50 across NCI-60 panel (MGM): average of GI50 values across the entire panel of NCI-60 cancer cell lines
Protocol: Cancer cells were incubated with the test compounds at five concentrations ranging from 100 μM to 10 nM for 48 h. […] The approximate average of GI50 values across the entire panel of NCI-60 cancer cell lines for each compound was recorded as the MGM value.

[3] = tested on: MYC protein expression in MCF-7 breast cancer cells; assay: Western blotting of MYC protein level in MCF-7 cells; format: cell-based, human; details: Homo sapiens, MCF7; western blotting, MCF-7 cells, 0.5, 1, 2, and 4 μM, 24 hours; read-out: MYC Inhibition
Protocol: MCF-7 cells were incubated with each compound at four concentrations (0.5, 1, 2, and 4 μM) for 24 hours, and the MYC protein levels were measured (FIG. 3A and FIGS. 12 A to 12 F).
Cells were incubated at 37° C. with 5% CO2.
The gels were cut into strips that contained the proteins of interest and transferred to nitrocellulose membrane (I323002, Invitrogen) using an iBlot 2 Dry Transfer Device (Invitrogen). Immunoblotting was carried out according to standard procedures using the ECL detection method. The membrane was hybridized with the following antibodies: monoclonal anti-MYC (1:1000 dilution; rabbit, Cell Signaling Technology), monoclonal anti-GAPDH (1:2000 dilution; rabbit, Cell Signaling Technology).

[4] = molecular target: T1, human topoisomerase I (Homo sapiens, UniProt P11387); details: relative topoisomerase I inhibition levels, previously determined, six levels (0 - 5, +++++ = 5); cited from earlier work
T1 sequence (P11387 1-765): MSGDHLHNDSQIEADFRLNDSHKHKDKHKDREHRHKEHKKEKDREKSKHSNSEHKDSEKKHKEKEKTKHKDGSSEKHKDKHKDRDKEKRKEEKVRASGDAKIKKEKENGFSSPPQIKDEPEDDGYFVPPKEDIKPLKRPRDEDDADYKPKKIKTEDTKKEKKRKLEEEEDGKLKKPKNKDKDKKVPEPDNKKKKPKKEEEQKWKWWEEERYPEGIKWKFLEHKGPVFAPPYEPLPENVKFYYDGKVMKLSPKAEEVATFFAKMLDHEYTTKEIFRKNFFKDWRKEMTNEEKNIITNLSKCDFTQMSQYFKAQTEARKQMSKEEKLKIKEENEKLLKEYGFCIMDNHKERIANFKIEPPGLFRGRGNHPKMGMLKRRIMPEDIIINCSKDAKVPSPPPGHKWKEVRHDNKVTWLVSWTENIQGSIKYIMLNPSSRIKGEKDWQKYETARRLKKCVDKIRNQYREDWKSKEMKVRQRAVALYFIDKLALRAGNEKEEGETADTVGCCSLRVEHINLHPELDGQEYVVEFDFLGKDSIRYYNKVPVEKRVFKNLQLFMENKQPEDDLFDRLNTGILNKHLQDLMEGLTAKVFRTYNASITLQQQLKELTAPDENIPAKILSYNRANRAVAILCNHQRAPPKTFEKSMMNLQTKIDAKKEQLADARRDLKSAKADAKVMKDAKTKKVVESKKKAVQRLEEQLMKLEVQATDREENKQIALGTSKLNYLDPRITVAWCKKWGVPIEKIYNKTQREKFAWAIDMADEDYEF

[5] = A549, Non-Small Cell Lung Cancer, A549/ATCC
[6] = COLO 205, Colon Cancer, COLO 205
[7] = EKVX, Non-Small Cell Lung Cancer, EKVX
[8] = HOP-62, Non-Small Cell Lung Cancer, HOP-62
[9] = HOP-92, Non-Small Cell Lung Cancer, HOP-92
[10] = NCI-H23, Non-Small Cell Lung Cancer, NCI-H23
[11] = NCI-H226, Non-Small Cell Lung Cancer, NCI-H226
[12] = NCI-H322M, Non-Small Cell Lung Cancer, NCI-H322M
[13] = NCI-H460, Non-Small Cell Lung Cancer, NCI-H460
[14] = NCI-H522, Non-Small Cell Lung Cancer, NCI-H522
[15] = HCC 2998, Colon Cancer, HCC-2998

Structure (SMILES) | GI50 [2, 5] [µM] | GI50 ([2]; CCRF-CEM, Leukemia, CCRF-CEM) [µM] | GI50 [2, 6] [µM] | GI50 [2, 7] [µM] | GI50 ([2]; HCT-116, Colon Cancer, HCT-116) [µM] | GI50 ([2]; HL-60, Leukemia, HL-60(TB)) [µM] | GI50 [2, 8] [µM] | GI50 [2, 9] [µM] | GI50 ([2]; K562, Leukemia, K-562) [µM] | GI50 ([2]; MOLT-4, Leukemia, MOLT-4) [µM] | GI50 [2, 10] [µM] | GI50 [2, 11] [µM] | GI50 [2, 12] [µM] | GI50 [2, 13] [µM] | GI50 [2, 14] [µM] | GI50 ([2]; RPMI-8226, Leukemia, RPMI-8226) [µM] | minimal effective concentration [3] [µM] | Top1 Inhibiton [4] | GI50 [2, 15] [µM] | mean GI50 across NCI-60 panel (MGM) [2] [nM] | other results
O=C1c2ccccc2-c2c1c1ccccc1c(=O)n2CCCN1CCOCC1 [Compound 16] |  |  |  |  |  |  |  |  |  |  |  |  |  |  |  |  |  |  |  |  | MycG4 binding and stabilizing activity (SAR) [1]: weakened
COc1cc2c3c(n(CCCNCCN)c(=O)c2cc1OC)-c1cc2c(cc1C3=O)OCO2 [Compound 46] | 0.74 | < 0.01 | 0.08 | 2.06 | 0.13 | 0.25 | 0.05 | 3.27 | 0.28 | < 0.01 | 0.05 | 0.65 | 0.53 | 0.43 | 0.4 | 0.48 | 4 | +++ (strong inhibition, +++, MYC expression inhibited at 0.5 to 1.0 μM) |  |  | 
COc1cc2c3c(n(CCCN(C)C)c(=O)c2cc1OC)-c1cc2c(cc1C3=O)OCO2 [Compound 47] | 0.89 | < 0.01 | 0.94 | 1.46 | 0.22 | 1.6 |  | 1.3 |  | < 0.01 | 0.19 | 1.4 | 1.56 | 0.28 | 0.31 | 0.3 | 2 |  | 0.13 | 390 | MycG4 binding and stabilizing activity (SAR) [1]: medium; GI50 ([2]; Leukemia, SR): < 0.01 µM
COc1cc2c3c(n(CCCN4CCC(N)CC4)c(=O)c2cc1OC)-c1cc2c(cc1C3=O)OCO2 [Compound 48] | 0.65 | 0.3 | 1.14 | 1.31 | 0.12 | > 50 | 0.42 |  | 1.59 | 0.42 | 0.71 | 0.66 | 1.05 | 0.24 | 13.1 | 0.2 | 4 | + (weak inhibition, +, MYC expression inhibited at 4.0 μM) | 0.14 | 1020 | 
COc1cc2c3c(n(CCCN4CCN(C)CC4)c(=O)c2cc1OC)-c1cc2c(cc1C3=O)OCO2 [Compound 49] | 18.7 | 2.44 | 10.3 | 17.7 | 1.49 | 19.5 | 18 | 19.8 | 6.49 | < 0.01 | 11.9 | 13.9 | 15.6 | 5.81 | 15.4 | 2.39 | 4 | + (weak inhibition, +, MYC expression inhibited at 4.0 μM) | < 0.01 | 12000 | 
COc1cc2c(=O)n(CCCN3CCOCC3)c3c(c2cc1OCCCN1CCCC1)C(=O)c1cc2c(cc1-3)OCO2 [Compound 55] | 0.11 | < 0.01 | 0.31 |  | 0.16 | 0.3 | 0.19 | 1.66 | 0.19 | < 0.01 | 0.71 | 2.12 | 1 | 0.03 | 0.04 | 0.25 | 4 | ++ (medium inhibition, ++, MYC expression inhibited at 2.0 μM, or no clear dose-dependent MYC inhibition) | 3.32 | 340 | GI50 ([2]; Leukemia, SR): < 0.01 µM
